Literature values as cited in US20170020833A1, “METHOD FOR TREATING AND/OR PREVENTING ACNE SCARS WITH A FIXED COMBINATION OF ADAPALENE OR ITS SALTS AND BENZOYL PEROXIDE” (GALDERMA RESEARCH & DEVELOPMENT, priority 2014, published 2017).

Test system: procollagen, MMP-1, 3 and MMP-9 in photodamage skin
Conditions: oral or topical; leading to MMP-1, 3 and MMP-9 decrease in relation to treatment duration

CC1=C(/C=C/C(C)=C/C=C/C(C)=C\C(=O)O)C(C)(C)CCC1 [isotretinoin]
Effect on UV-induced loss of procollagen: protects against UV-induced loss of procollagen
